Tested on: E. coli BL21 transformed with pET28_CHI_ΔLid and pET22_ERED
Assay: Whole-cell biocatalysis of naringin
Assay type: cell-based
Settings: 150 μM naringin, cell suspension OD=150 in 20 mM TRIS-HCl pH 7.5, gassed with nitrogen, 23° C., 900 rpm, 22 h
Procedure: After successful cloning the plasmid pET28_CHI_ΔLid (FIG. 1) together with the plasmid pET22_ERED was transformed into E. coli BL21.
200 mL LBkan, amp were inoculated with 1% (v/v) of an overnight culture and grown at 37° C. to an OD≥1. The induction of the expression was then carried out with 0.1 mM IPTG. The expression of the protein was carried out for 21 h at 20° C.
After the harvesting of the cells these were normalised with 20 mM TRIS-HCl pH 7.5 to an OD=150. For the implementation of the biocatalyses in each case 490 μL of the cell suspension was added with 10 μL naringin solution (stock solution: 7.5 mM naringin dissolved in 1,2-propylene glycol; final concentration: 150 μM) to a 2 mL Eppendorf reaction vessel and gassed with nitrogen. The biocatalyses were carried out at 23° C., 900 rpm and 22 h. The extraction of the substrates was carried out twice with ethyl acetate.

SMILES: C[C@@H]1O[C@@H](O[C@H]2[C@H](Oc3cc(O)c4c(c3)O[C@H](c3ccc(O)cc3)CC4=O)O[C@H](CO)[C@@H](O)[C@@H]2O)[C@H](O)[C@H](O)[C@H]1O [naringin]
- conversion of the naringin: 65%

Source: US10538797B2, “Method for the biotechnological production of flavone glycoside dihydrochalcones” (priority 2014, dated 2020)
